Measured values as given in patent publication US20040014187A1, “Bacterial carboxypeptidase cpg2 variants and their use in gene directed enzyme prodrug therapy” (priority 2000, published 2004).
Values joined by “and” are separate entries in the source; they are usually repeats but may differ in a detail not shown here. Identical values can stand only once. Like-named read-outs stand apart in the source and are kept apart here.

Experiments:
[1] = test system: SK-OV-3 cells; conditions: SK-OV-3 clone expressing CPG2* (1.013 U/mg), previous study; read-out: IC50 for CMDA; cited from earlier work
[2] = patients, ADEPT trial; cited from earlier work
[3] = test system: WiDr cells; conditions: WiDr clone expressing CPG2*, previous study; read-out: IC50 for CMDA; cited from earlier work
[4] = test system: WiDr cells; assay: Cytotoxicity of CMDA, [3H]-thymidine incorporation; assay type: cell-based, human
Description: (§1) Cytotoxicity and bystander cytotoxicity assays were performed as described previously (Marais et al (1996) Cancer Res. 56, 4735-4742). Briefly, for cytotoxicity assays, cells were grown to confluence and treated twice, once for an hour, immediately followed by an 18 h treatment, using increasing amounts of CMDA prodrug in DMEM/FCS. Cells were trypsinized and approximately 3% were replated and allowed to grow for a further 4 days, when uptake of [^3H]-thymidine was used to infer survival. For bystander assays, mixtures of cells expressing stCPG2(Q)3 and cells of the same lineage expressing β-galactosidase were treated with a single concentration of CMDA in the same two-stage treatment protocol, using 2 mM CMDA for WiDr and SK-OV-3 cells and 1 mM CMDA for A2780 cells.

[5] = test system: SK-OV-3 cells; assay: Cytotoxicity of CMDA, [3H]-thymidine incorporation; assay type: cell-based, human
Description: as §1

[6] = test system: A2780 cells; assay: Cytotoxicity of CMDA, [3H]-thymidine incorporation; assay type: cell-based, human
Description: as §1

[7] = test system: control cell lines expressing lacZ; assay: Kinetics of cell death: toxicity of CMDA test concentrations to control cells; assay type: cell-based, human; conditions: 2 mM CMDA (WiDr, SK-OV-3) or 1 mM CMDA (A2780)
Description: To determine exposure times to CMDA required for the death of 50% of the cell populations, cell lines were plated at 3×10^5 cells per well in 6-well tissue culture plates, and allowed to grow to confluence. Tissue culture medium was replaced with 1 ml DMEM/FCS containing 2 mM CMDA (for WiDr and SK-OV-3 cell lines) or 1 mM CMDA (for A2780 cell lines). These concentrations are not toxic to control cell lines expressing lacZ. After 0.5, 1, 2, 4, 8, 12, and 16 h exposure, cells were trypsinized and approximately 3% were replated. After a further 4 d growth, cell survival was determined by [^3H]-thymidine incorporation (0.4 μCi/ml, 6h).

[8] = test system: A2780 cells; conditions: A2780 clone expressing CPG2*, previous study; read-out: IC50 for CMDA; cited from earlier work

In the case of `CS(=O)(=O)OCCN(CCCl)c1ccc(C(=O)N[C@@H](CCC(=O)O)C(=O)O)cc1` [CMDA, N-4-[(2-chloroethyl) (2-mesyloxyethyl)amino]benzoyl-L-glutamic acid], the IC50 [1] is listed as 258 µM, the “peak CMDA concentration in sera” value [2] is listed as “approximately 3 mM” and the IC50 [3] is listed as 277 µM. The “Differential cytotoxicity (fold)” value ([4]; WiDr clone W3 stCPG2(Q)3 versus lacZ) was 32.3 fold, the “Differential cytotoxicity (fold)” value ([4]; WiDr clone W4 stCPG2(Q)3 versus lacZ) was 22.0 fold and the IC50 ([4]; WiDr clones expressing stCPG2(Q)3, read-out: IC50 for CMDA) was 100 to 150 µM and 100 µM and 147 µM. The IC50 ([4]; WiDr expressing lacZ (β-gal), read-out: IC50 (μM CMDA)) was 3230 µM, the “Differential cytotoxicity (fold)” value ([5]; SK-OV-3 clone S2.34 CPG2* versus lacZ) was 3.2 fold and the IC50 ([5]; SK-OV-3 clone S2.34 expressing CPG2*, read-out: IC50 (μM CMDA)) was 1290 µM. The “Differential cytotoxicity (fold)” value ([5]; SK-OV-3 clone S2.4 CPG2* versus lacZ) was 1.3 fold, the IC50 ([5]; SK-OV-3 clone S2.4 expressing CPG2*, read-out: IC50 (μM CMDA)) was 3200 µM and the IC50 ([5]; SK-OV-3 clone S5 expressing stCPG2(Q)3, read-out: IC50 (μM CMDA)) was 216 µM. For the same compound, the “Differential cytotoxicity (fold)” value ([5]; SK-OV-3 clone S5 stCPG2(Q)3 versus lacZ) was 19.4 fold, the IC50 ([5]; SK-OV-3 clone S6 expressing stCPG2(Q)3, read-out: IC50 (μM CMDA)) was 479 µM and the “Differential cytotoxicity (fold)” value ([5]; SK-OV-3 clone S6 stCPG2(Q)3 versus lacZ) was 8.7 fold. For the same compound, the IC50 ([5]; SK-OV-3 clone S7 expressing stCPG2(Q)3, read-out: IC50 (μM CMDA)) was 544 µM, the “Differential cytotoxicity (fold)” value ([5]; SK-OV-3 clone S7 stCPG2(Q)3 versus lacZ) was 7.7 fold and the “increase in sensitivity compared to β-gal expressing cells” value ([5]; SK-OV-3 clones expressing stCPG2(Q)3) was 7-20 fold. For the same compound, the IC50 ([5]; SK-OV-3 clones expressing stCPG2(Q)3, read-out: IC50 for CMDA) was 216 to 544 µM, the IC50 ([5]; SK-OV-3 expressing lacZ, read-out: IC50 (μM CMDA)) was 4180 µM and the IC50 ([6]; A2780 clone A3 expressing stCPG2(Q)3) was 15.6 µM. For the same compound, the “Differential cytotoxicity (fold)” value ([6]; A2780 clone A3 stCPG2(Q)3 versus lacZ) was 138 fold, the IC50 ([6]; A2780 clone A4 expressing stCPG2(Q)3) was 20.4 µM and the “Differential cytotoxicity (fold)” value ([6]; A2780 clone A4 stCPG2(Q)3 versus lacZ) was 105 fold. For the same compound, the “increase in sensitivity compared to β-gal expressing cells” value ([6]; A2780 clones expressing stCPG2(Q)3) was greater than 100 fold, the IC50 ([6]; A2780 expressing lacZ (β-gal)) was 2150 µM and the “toxicity to control cell lines expressing lacZ” value [7] was “not toxic”. The IC50 [8] was 23.2 µM.
